{"source": "paper PMC11555678", "about": "“Improved Broad Spectrum Antifungal Drug Synergies with Cryptomycin, a Cdc50-Inspired Antifungal Peptide” (ACS Infectious Diseases, 2024)", "key": {"C. neoformans H99": {"system": "C. neoformans H99", "type": "cell-based, Cryptococcus neoformans", "conditions": "for MIC of antifungal in combination with (FITC)KKOO / MIC of antifungal in combination with KKOO / MIC of antifungal in combination with KKOO-NH2: RPMI1640, 37 °C; for MIC of antifungal in combination with KKOO / MIC of antifungal in combination with KKOO-NH2: 48 h", "method": "All microdilution assays with fungi were carried out in accordance with CLSI protocols from M27 for yeasts and M38 for filamentous fungi, respectively, unless otherwise specified.[64],[65] Briefly, 96-well plates were charged with RPMI1640 media, with operating volume in the first column, 200 μL, and half operating volume, 100 μL, in the remaining wells. Drug stock solution in DMSO was aliquoted into the first well in each row. Half of the volume in the dosed well was serially diluted 2-fold until column 11. Column 11 was used as the negative growth control, and column 12 was used as the positive growth control. ON yeast cultures in YPD were washed twice in DD-H2O, resuspended in PBS, and adjusted to 5000 cfu/mL in RPMI. The 96-well plate was inoculated with 100 μL aliquots of cell suspension per well. […]\n(§1) To assess drug synergy, the initial media charged to the plate contained the peptide at twice the final operating concentration; the remaining processing steps were identical to the MIC experiment. Upon addition of 100 μL of inoculant, the final operating concentration was achieved. Control MIC plates were prepared alongside drug synergy plates to account for the day-to-day variability in any individual MIC. FIC index is computed using eq 1. All MIC assays and drug synergy assays were completed with two technical replicates per 96-well plate and a minimum of two biological replicates per drug combination. If a difference in MIC between the two technical replicates on the plate were observed, only the higher concentration was reported as the MIC to reduce the possibility of type 1 error (false positive) [drawing 1] 1"}, "C. glabrata FKS2-S663P": {"system": "C. glabrata FKS2-S663P", "experiment": "microbe, parasite or virus in culture", "type": "cell-based, Candida glabrata", "conditions": "Nakaseomyces glabratus, FKS2S663P, 48 h", "method": "(§2) All microdilution assays with fungi were carried out in accordance with CLSI protocols from M27 for yeasts and M38 for filamentous fungi, respectively, unless otherwise specified.[64],[65] Briefly, 96-well plates were charged with RPMI1640 media, with operating volume in the first column, 200 μL, and half operating volume, 100 μL, in the remaining wells. Drug stock solution in DMSO was aliquoted into the first well in each row. Half of the volume in the dosed well was serially diluted 2-fold until column 11. Column 11 was used as the negative growth control, and column 12 was used as the positive growth control. ON yeast cultures in YPD were washed twice in DD-H2O, resuspended in PBS, and adjusted to 5000 cfu/mL in RPMI. The 96-well plate was inoculated with 100 μL aliquots of cell suspension per well. Plates were incubated at 37 °C for 2 days."}, "C. glabrata FKS1-S629P": {"system": "C. glabrata FKS1-S629P", "experiment": "microbe, parasite or virus in culture", "type": "cell-based, Candida glabrata", "conditions": "Nakaseomyces glabratus, FKS1S629P, 48 h", "method": "as §2"}, "C. glabrata 2001": {"system": "C. glabrata 2001", "experiment": "microbe, parasite or virus in culture", "type": "cell-based, Candida glabrata", "conditions": "Nakaseomyces glabratus, 2001; compound alone; RPMI1640, 37 °C, 48 h; read-out: MIC", "method": "as §2"}, "Cn MRL862": {"system": "Cn MRL862", "type": "cell-based, Cryptococcus neoformans", "conditions": "RPMI1640, 37 °C, 48 h", "method": "as §2, §1"}, "C. auris B11245": {"system": "C. auris B11245", "experiment": "microbe, parasite or virus in culture", "type": "cell-based, Candida auris", "conditions": "Candidozyma auris, B11245; compound alone; RPMI1640, 37 °C, 48 h; * = paradoxical growth observed (CAS); read-out: MIC", "method": "as §2"}}, "note": "Read-outs that look alike come from different tables or passages of the source.", "data": [{"smiles": "C[C@@H]1[C@H](O)[C@@H](C)/C=C/C=C/C=C/C=C/C=C/C=C/C=C/[C@H](O[C@@H]2O[C@H](C)[C@@H](O)[C@H](N)[C@@H]2O)C[C@@H]2O[C@](O)(C[C@@H](O)C[C@@H](O)[C@H](O)CC[C@@H](O)C[C@@H](O)CC(=O)O[C@H]1C)C[C@H](O)[C@H]2C(=O)O", "note": "[AMB, amphotericin B]", "values": [{"measurement": "MIC of antifungal in combination with (FITC)KKOO", "setting": "C. neoformans H99; +0 μg/mL (FITC)KKOO", "result": 0.5, "unit": "µg/mL"}, {"measurement": "MIC of antifungal in combination with KKOO", "setting": "C. neoformans H99; +0 μg/mL KKOO (control)", "result": 0.5, "unit": "µg/mL"}, {"measurement": "MIC of antifungal in combination with KKOO-NH2", "setting": "C. neoformans H99; +0 μg/mL KKOO-NH2 (control)", "result": 0.5, "unit": "µg/mL"}, {"measurement": "MIC of antifungal in combination with KKOO-NH2", "setting": "C. neoformans H99; +1 μg/mL KKOO-NH2", "result": 0.062, "unit": "µg/mL"}, {"measurement": "MIC of antifungal in combination with KKOO", "setting": "C. neoformans H99; +1 μg/mL KKOO", "result": 0.25, "unit": "µg/mL"}, {"measurement": "MIC of antifungal in combination with KKOO-NH2", "setting": "C. neoformans H99; +2 μg/mL KKOO-NH2", "result": 0.062, "unit": "µg/mL"}, {"measurement": "MIC of antifungal in combination with KKOO", "setting": "C. neoformans H99; +2 μg/mL KKOO", "result": 0.062, "unit": "µg/mL"}, {"measurement": "MIC of antifungal in combination with (FITC)KKOO", "setting": "C. neoformans H99; +4 μg/mL (FITC)KKOO", "result": 0.125, "unit": "µg/mL"}, {"measurement": "MIC of antifungal in combination with KKOO-NH2", "setting": "C. neoformans H99; +4 μg/mL KKOO-NH2", "result": 0.031, "unit": "µg/mL"}, {"measurement": "MIC of antifungal in combination with KKOO", "setting": "C. neoformans H99; +4 μg/mL KKOO", "result": 0.062, "unit": "µg/mL"}, {"measurement": "MIC of antifungal in combination with (FITC)KKOO", "setting": "C. neoformans H99; +8 μg/mL (FITC)KKOO", "result": 0.062, "unit": "µg/mL"}, {"measurement": "MIC of antifungal in combination with KKOO", "setting": "C. neoformans H99; +8 μg/mL KKOO", "result": 0.062, "unit": "µg/mL"}, {"measurement": "reduction of MIC of antifungal", "setting": "C. neoformans H99; in the presence of 1 μg/mL KKOO-NH2, 48 h", "result": 8, "unit": "fold"}, {"measurement": "reduction of MIC of antifungal", "setting": "C. neoformans H99; in the presence of 4 μg/mL (FITC)KKOO", "result": 4, "unit": "fold"}, {"measurement": "MIC", "setting": "C. glabrata FKS2-S663P", "result": 1, "unit": "µg/mL"}, {"measurement": "MIC", "setting": "C. glabrata FKS1-S629P", "result": 1, "unit": "µg/mL"}, {"measurement": "MIC", "setting": "C. glabrata 2001", "result": 1, "unit": "µg/mL"}, {"measurement": "MIC of antifungal in combination with KKOO", "setting": "Cn MRL862; +0 μg/mL KKOO (control)", "result": 0.25, "unit": "µg/mL"}, {"measurement": "MIC of antifungal in combination with KKOO-NH2", "setting": "Cn MRL862; +0 μg/mL KKOO-NH2 (control)", "result": 0.25, "unit": "µg/mL"}, {"measurement": "MIC of antifungal in combination with KKOO-NH2", "setting": "Cn MRL862; +1 μg/mL KKOO-NH2", "result": 0.125, "unit": "µg/mL"}, {"measurement": "MIC of antifungal in combination with KKOO", "setting": "Cn MRL862; +1 μg/mL KKOO", "result": 0.125, "unit": "µg/mL"}, {"measurement": "MIC of antifungal in combination with KKOO-NH2", "setting": "Cn MRL862; +2 μg/mL KKOO-NH2", "result": 0.031, "unit": "µg/mL"}, {"measurement": "MIC of antifungal in combination with KKOO", "setting": "Cn MRL862; +2 μg/mL KKOO", "result": 0.031, "unit": "µg/mL"}, {"measurement": "MIC of antifungal in combination with KKOO-NH2", "setting": "Cn MRL862; +4 μg/mL KKOO-NH2", "result": 0.016, "unit": "µg/mL"}, {"measurement": "MIC of antifungal in combination with KKOO", "setting": "Cn MRL862; +4 μg/mL KKOO", "result": 0.016, "unit": "µg/mL"}, {"measurement": "MIC", "setting": "C. auris B11245", "result": 1, "unit": "µg/mL"}]}]}
